The source of these data is patent US20150089682A1, “ALS Inhibitor Herbicide Tolerant B. Napus Mutants” (priority 2012, published 2015).

In data set [1] the target is T1, Arabidopsis thaliana P197S-mutant ALS (Arabidopsis thaliana, UniProt P17597, E575Q/P197S).
T1 construct: vector-encoded N-terminal fusion of pET-32a(+) (Trx/His/S tag by own knowledge); made in house; host or cells: Escherichia coli AD494
As to the kind of experiment: biochemical. Particulars: relative to WT; from measured pI50. As to the method:
(§1) Bacteria were grown at 37° C. in LB-medium containing 100 mg/1 carbenicillin and 25 mg/1 canamycin, induced with 1 mM isopropyl-β-D-thiogalactopyranoside at an OD600 of 0.6, cultivated for 16 hours at 18° C. and harvested by centrifugation. Bacterial pellets were resusupended in 100 mM sodium phosphate buffer pH 7.0 containing 0.1 mM thiamine-pyrophosphate, 1 mM MgCl2, and 1 μM FAD at a concentration of 1 gram wet weight per 25 ml of buffer and disrupted by sonification. The crude protein extract obtained after centrifugation was used for ALS activity measurements.
(§2) Assays were initiated by adding enzyme and terminated after 75 min incubation at 30° C. by the addition to 40 μl 0.5 M H2SO4. […] Reaction velocities were tiffed to the Michalis-Menten equation with the XLFit curve fitting program.

Data set [2] addresses T2, Arabidopsis thaliana W574L-mutant ALS (Arabidopsis thaliana, UniProt P17597, E575Q/W574L).
T2 construct: vector-encoded N-terminal fusion of pET-32a(+) (Trx/His/S tag by own knowledge); made in house; host or cells: Escherichia coli AD494
As to the kind of experiment: biochemical. Particulars: relative to WT; from measured pI50. As for the experimental part:
as §1, §2

For data set [3], the system named is spring oilseed rape variety ABILITY. As to the kind of experiment: Herbicide tolerance in the field, visible phytotoxicity. Format: in vivo, Brassica napus. Particulars: ABILITY; AI dose rate 30 gai/ha; field, 18 days after application; 0%=no phytotoxic effects, 100%=all plants killed. An excerpt:
(§3) Seeds of spring oilseed rape homozygous for HETO108 and HETO121 were sown in a field according to typical practical agricultural methods. The registered spring oilseed rape variety ABILITY served as a comparison. All plants were cultivated up to BBCH stage 14 (four true leaves of the oilseed rape plants). Afterwards, the herbicides mentioned in table 2 have been applied to the oilseed rape plants by using specific spray equipment for small plot applications. The water amount used was 200 L/ha.

The test system of data set [4] is spring oilseed rape homozygous for HETO108 and HETO121. Described as above. Format: in vivo, Brassica napus. As to conditions: HETO108-HETO121; AI dose rate 30 gai/ha; field, 18 days after application; 0%=no phytotoxic effects, 100%=all plants killed.
Description: as §3

The target of data set [5] is T3, mixture of P197S and W574L ALS enzymes (Arabidopsis thaliana, UniProt P17597).
T3 construct: crude E. coli extract was used
Format: biochemical. As to conditions: relative to WT; calculated. As to the method:
as §2
(§4) To characterize the response of a mixture of two different ALS enzymes to a given ALS inhibitor the following assumptions were made: • a inhibition is competitive and reversible • b. in the absence of inhibitor, equal activities of the ALS (mutant) enzymes 1 and 2 are present
(§5) Using experimentally determined pI50-values for various ALS-inhibiting herbicides, enzyme activities at different inhibitor concentrations were calculated (see Theory) for each ALS enzyme. Total ALS activity at any given inhibitor concentration is the sum of the activity of (mutant) enzyme 1 and (mutant) enzyme 2. If the experimentally determined pI50-value was <4, pI50=3.0 was used for the calculations. If the calculated pI50-value was 3.0, the pI50 was redefined as <4.

The target of data set [6] is T4, mixture of S653N and W574L ALS enzymes (Arabidopsis thaliana, UniProt P17597).
T4 construct: crude E. coli extract was used
Format: biochemical. As to conditions: relative to WT; calculated. As to the method: as §2, §4, §5

The test system of data set [7] is ALS enzyme in leaves of wild-type Brassica lines. Nature of the data set: ALS enzyme activity in leaves. Format: biochemical, Brassica napus. Particulars: wild-type leaves (row IV) compared with mutant lines (rows I-III), FIG. 3. As for the experimental part:
(§6) The inhibitory effect of ALS inhibiting herbicides on ALS enzymes encoded by the different mutant AHAS alleles was tested in leaf material essentially as described by Shimizu et al, 2008, Plant Physiol. 147:1976.

Data set [8] relates to ALS enzymes in leaves of Brassica lines homozygous for HETO108, HETO121 or both. Nature of the data set: ALS enzyme activity in leaves. Particulars: mutant lines (rows I-III), FIG. 3. Format: biochemical, Brassica napus. As to the method:
as §6

The nature of data set [9]: Kinetic parameters of enzymatic activity of AHAS mutants. As to conditions: pyruvate varied 0-120 mM. In kind it is biochemical, Arabidopsis thaliana. As to the method: as §1, with “The coding sequences of the Arabidopsis thaliana wild-type and P197S-, W574L-, and S653N-mutant ALS genes were cloned into Novagen pET-32a(+) vectors and the vectors transformed into Escherichia coli AD494 according to the instructions of the manufacturer. Bacteria were” for “Bacteria were”
ALS assays were carried out in 96-well microtiter plates using a modification of the procedure described by Ray (1984), Plant Physiol 75:827-831. The reation mixture contained 20 mM potassium phosphate buffer pH 7.0, 20 mM sodium pyruvate, 0.45 mM thiamine-pyrophosphate, 0.45 mM MgCl2, 9 μM FAD, ALS enzyme and various concentrations of ALS inhibitors in a final volume of 90 μl. Assays were initiated by adding enzyme and terminated after 75 min incubation at 30° C. by the addition to 40 μl 0.5 M H2SO4. […] The pI50 values measured for the different mutant AHAS proteins and calculated for the mixtures of two different AHAS enzymes are shown in Table 3. […] Reaction velocities were tiffed to the Michalis-Menten equation with the XLFit curve fitting program.

In the case of `COC(=O)c1csc(C)c1S(=O)(=O)NC(=O)n1nc(OC)n(C)c1=O` [Thiencarbazone-methyl, thiencarbazone-methyl], the “Resistance Factor P197S” value in data set [1] amounted to 1259. The “Resistance Factor W574L” value in data set [2] is recorded as 1259. Besides, the “% phytotox” value in data set [3] worked out at 100%; in data set [4], 3%. In addition, the “Resistance Factor P197S & W574L” value in [5] is 1259. Moreover, in data set [6], the “Resistance Factor S653N & W574L” value is 316. Besides, the “inhibition of ALS enzyme activity in leaves” value in data set [7] is given as “inhibited at lower concentrations of the herbicides than in leaves comprising the mutant AHAS alleles”. Also, the “herbicide tolerance of ALS activity in leaves, TCM compared with FS” value in [8] is “the herbicide tolerance is higher for TCM than for FS”.

B1: Wild-type: Arabidopsis thaliana wild-type ALS expressed in Escherichia coli, crude protein extract (protein, UniProt P17597 56-670, looked up)
Acetolactate synthase, …: SSSPSSISAVLNTTTNVTTTPSPTKPTKPETFISRFAPDQPRKGADILVEALERQGVETVFAYPGGASMEIHQALTRSSSIRNVLPRHEQGGVFAAEGYARSSGKPGICIATSGPGATNLVSGLADALLDSVPLVAITGQVPRRMIGTDAFQETPIVEVTRSITKHNYLVMDVEDIPRIIEEAFFLATSGRPGPVLVDVPKDIQQQLAIPNWEQAMRLPGYMSRMPKPPEDSHLEQIVRLISESKKPVLYVGGGCLNSSDELGRFVELTGIPVASTLMGLGSYPCDDELSLHMLGMHGTVYANYAVEHSDLLLAFGVRFDDRVTGKLEAFASRAKIVHIDIDSAEIGKNKTPHVSVCGDVKLALQGMNKVLENRAEELKLDFGVWRNELNVQKQKFPLSFKTFGEAIPPQYAIKVLDELTDGKAIISTGVGQHQMWAAQFYNYKKPRQWLSSGGLGAMGFGLPAAIGASVANPDAIVVDIDGDGSFIMNVQELATIRVENLPVKVLLLNNQHLGMVMQWEDRFYKANRAHTFLGDPAQEDEIFPNMLLFAAACGIPAARVTKKADLREAIQTMLDTPGPYLLDVICPHQEHVLPMIPSGGTFNDVITEGDGRIKY
With B1, in data set [9], the Km is 2.1 ± 0.1 mM and the Vmax is given as 42.7 ± 1.3 ΔE/min mg.

B2: W574L: Arabidopsis thaliana W574L-mutant ALS expressed in Escherichia coli, crude protein extract (protein, UniProt P17597 56-670, looked up, variant W574L)
Acetolactate synthase, …: SSSPSSISAVLNTTTNVTTTPSPTKPTKPETFISRFAPDQPRKGADILVEALERQGVETVFAYPGGASMEIHQALTRSSSIRNVLPRHEQGGVFAAEGYARSSGKPGICIATSGPGATNLVSGLADALLDSVPLVAITGQVPRRMIGTDAFQETPIVEVTRSITKHNYLVMDVEDIPRIIEEAFFLATSGRPGPVLVDVPKDIQQQLAIPNWEQAMRLPGYMSRMPKPPEDSHLEQIVRLISESKKPVLYVGGGCLNSSDELGRFVELTGIPVASTLMGLGSYPCDDELSLHMLGMHGTVYANYAVEHSDLLLAFGVRFDDRVTGKLEAFASRAKIVHIDIDSAEIGKNKTPHVSVCGDVKLALQGMNKVLENRAEELKLDFGVWRNELNVQKQKFPLSFKTFGEAIPPQYAIKVLDELTDGKAIISTGVGQHQMWAAQFYNYKKPRQWLSSGGLGAMGFGLPAAIGASVANPDAIVVDIDGDGSFIMNVQELATIRVENLPVKVLLLNNQHLGMVMQLEDRFYKANRAHTFLGDPAQEDEIFPNMLLFAAACGIPAARVTKKADLREAIQTMLDTPGPYLLDVICPHQEHVLPMIPSGGTFNDVITEGDGRIKY
With B2, in [9], the Michaelis-Menten constant (Km) turned out to be 6.9 ± 0.2 mM and the Vmax is recorded as 54.4 ± 2.8 ΔE/min mg.

B3: S653N: Arabidopsis thaliana S653N-mutant ALS expressed in Escherichia coli, crude protein extract (protein, UniProt P17597 56-670, looked up, variant S653N)
Acetolactate synthase, …: SSSPSSISAVLNTTTNVTTTPSPTKPTKPETFISRFAPDQPRKGADILVEALERQGVETVFAYPGGASMEIHQALTRSSSIRNVLPRHEQGGVFAAEGYARSSGKPGICIATSGPGATNLVSGLADALLDSVPLVAITGQVPRRMIGTDAFQETPIVEVTRSITKHNYLVMDVEDIPRIIEEAFFLATSGRPGPVLVDVPKDIQQQLAIPNWEQAMRLPGYMSRMPKPPEDSHLEQIVRLISESKKPVLYVGGGCLNSSDELGRFVELTGIPVASTLMGLGSYPCDDELSLHMLGMHGTVYANYAVEHSDLLLAFGVRFDDRVTGKLEAFASRAKIVHIDIDSAEIGKNKTPHVSVCGDVKLALQGMNKVLENRAEELKLDFGVWRNELNVQKQKFPLSFKTFGEAIPPQYAIKVLDELTDGKAIISTGVGQHQMWAAQFYNYKKPRQWLSSGGLGAMGFGLPAAIGASVANPDAIVVDIDGDGSFIMNVQELATIRVENLPVKVLLLNNQHLGMVMQWEDRFYKANRAHTFLGDPAQEDEIFPNMLLFAAACGIPAARVTKKADLREAIQTMLDTPGPYLLDVICPHQEHVLPMIPNGGTFNDVITEGDGRIKY
B3: in [9], the Km came out at 5.8 ± 0.4 mM and the Vmax is recorded as 32.0 ± 1.4 ΔE/min mg.

B4: P197S: Arabidopsis thaliana P197S-mutant ALS expressed in Escherichia coli, crude protein extract (protein, UniProt P17597 56-670, looked up, variant P197S)
Acetolactate synthase, …: SSSPSSISAVLNTTTNVTTTPSPTKPTKPETFISRFAPDQPRKGADILVEALERQGVETVFAYPGGASMEIHQALTRSSSIRNVLPRHEQGGVFAAEGYARSSGKPGICIATSGPGATNLVSGLADALLDSVPLVAITGQVSRRMIGTDAFQETPIVEVTRSITKHNYLVMDVEDIPRIIEEAFFLATSGRPGPVLVDVPKDIQQQLAIPNWEQAMRLPGYMSRMPKPPEDSHLEQIVRLISESKKPVLYVGGGCLNSSDELGRFVELTGIPVASTLMGLGSYPCDDELSLHMLGMHGTVYANYAVEHSDLLLAFGVRFDDRVTGKLEAFASRAKIVHIDIDSAEIGKNKTPHVSVCGDVKLALQGMNKVLENRAEELKLDFGVWRNELNVQKQKFPLSFKTFGEAIPPQYAIKVLDELTDGKAIISTGVGQHQMWAAQFYNYKKPRQWLSSGGLGAMGFGLPAAIGASVANPDAIVVDIDGDGSFIMNVQELATIRVENLPVKVLLLNNQHLGMVMQWEDRFYKANRAHTFLGDPAQEDEIFPNMLLFAAACGIPAARVTKKADLREAIQTMLDTPGPYLLDVICPHQEHVLPMIPSGGTFNDVITEGDGRIKY
As for B4, in data set [9], the Km worked out at 5.5 ± 0.8 mM and the Vmax is 50.0 ± 6.1 ΔE/min mg.
